In patent US5084082A, “Soybean plants with dominant selectable trait for herbicide resistance” (priority 1990, dated 1992):
“Also recorded” adds a separate entry of the source.

Legend:
Type in all cases: in vivo, soybean
Williams 82 [1] = assay: Test B postemergence cross resistance test; conditions: Glycine max, post-emergence; for soybean crop injury at 2 g/ha: Wm 82, 2 g/ha postemergence
Summary of the method: (§1)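 Injury ratings (2–3 per pot across 3 weeks, averaged per pot) after postemergence spraying at second-trifoliolate stage; Williams 82 as comparator. Low rate chosen to injure but not kill Williams 82, high rate to severely injure or kill it. ANOVA per herbicide; Fisher's LSD, 95%.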

mutant line W28 = assay: Test B postemergence cross resistance test; conditions: Glycine max, post-emergence; for mean % injury to soybean at 2 g/ha: W28, 2 g/ha postemergence
Summary of the method: as §1

mutant line W23 = assay: Test B postemergence cross resistance test; conditions: Glycine max, post-emergence
Summary of the method: as §1

mutant line W4 = assay: Test B postemergence cross resistance test; conditions: Glycine max, post-emergence; for % crop injury at 2 g/ha: W4, 2 g/ha postemergence
Summary of the method: as §1

mutant line W19 = assay: Test B postemergence cross resistance test; conditions: Glycine max, post-emergence; for percent soybean crop injury at 2 g/ha: W19, 2 g/ha postemergence
Summary of the method: as §1

mutant line W17 = assay: Test B postemergence cross resistance test; conditions: Glycine max, post-emergence; for soybean crop injury (%) at 2 g/ha: W17, 2 g/ha postemergence
Summary of the method: as §1

mutant line W20 = assay: Test B postemergence cross resistance test; conditions: Glycine max, post-emergence
Summary of the method: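 Soybean mutant lines and Williams 82 sprayed postemergence at the second trifoliolate stage with ALS inhibitors (sulfonylureas, imidazolinones), each at two rates. Injury rated two to three times per pot over three weeks in the greenhouse and averaged; ANOVA per herbicide, Fisher's LSD at 95%.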

Williams 82 [2] = assay: Test A postemergence herbicide spray, greenhouse pots
Description: (§2) In the first post-emergence test, two true-breeding resistant mutant lines, W19 and W20, were compared to previously isolated tolerant mutants and wild-type Williams 82. Eighteen pots (20 cm diameter) of each soybean line (2 seeds per pot) were planted using a standard sterile potting mix. When the seedlings reached the second trifoliolate stage, plants were thinned back to one plant per pot. Each pot was then sprayed with a specific herbicide treatment using a conveyor belt spray apparatus to emulate field application. The nine different herbicide treatments included one rate (8 g/ha) of Compound 1 and two rates (8 and 32 g/ha) each of four other sulfonylurea herbicides (Compounds 2,3,7 and 8) (see Table VI) using a factorial treatment design with 2 replications.
(§3) In both postemergence tests, plants were returned to the greenhouse after treatment and provided with ample light, moisture, and nutrients to support healthy plant growth. Two to three ratings per pot were recorded over a three-week period and averaged to obtain a single value for each pot For each herbicide, analysis of variance on injury ratings was performed separately. Fisher's least significant difference (LSD) was used to determine the significance of line mean differences at each herbicide rate using the 95% level of confidence. […]

Mutant 1-184A = assay: as above
Description: as §2, §3

mutant W19 = assay: as above
Description: as §2, §3

mutant W20 [3] = assay: as above
Description: as §2, §3

W20 = assay: Seed soak test with Compound 8; conditions: W20, seeds soaked 16 hours in 2 ppm solution
Protocol: The second screening protocol was carried out as follows: samples of seed from W20 were tested for preemergence tolerance to Compound 8 by soaking seeds in a 2.0 ppm buffered solution of Compound 8 for 16 hours, rinsing, and planting in flats in a greenhouse.
The original W4-4 M2 plant was allowed to self pollinate, mature, and produced a family of M3 seeds. An M3 progeny test was then conducted to determine if the new resistance phenotype was heritable and if the M3 family was true-breeding or segregating for the new resistance trait. The M3 progeny of W4-4 were screened for resistance with the same seed soak technique used to select the original W4-4 M2 plant. Twenty seeds each of the W4-4 M3 family, W20 line, and Williams line were soaked for 16 hours in a solution of 2 ppm of Compound 8. Twenty additional seeds of Williams were soaked for 16 hours in plain tap water as a control treatment. Treated seeds were then washed for two minutes in running water. Each seed was then planted in a separate pot for ease of observation.

Williams 82 [4] = assay: Postemergence herbicide spray test of W4-4 (Table VII-A); conditions: two weeks after treatment
Protocol: (§4) To investigate this hypothesis, a postemergence herbicide spray test was conducted to compare the reaction of W4-4 to both W20 and wild-type Williams. The applicant was particularly interested in the resistance of W4-4 to herbicide treatments that were injurious to both Williams and W20 in a previous test (Table VII). […] Twenty-four plants each of W4-4, W20, and Williams were planted in separate 10 cm pots and allowed to grow to the second trifoliolate stage. Each pot constituted a single experimental unit receiving a single herbicide treatment. Herbicide treatments (Table VIIA) were applied as described for the first postemergence test and were replicated twice. Control plants were sprayed with the spray carrier solution only (water with 0.25% X77 surfactant). At two weeks after treatment, each plant was rated for % herbicide injury as described in Table VIII. Analysis of variance on injury ratings was performed separately for each herbicide to calculate treatment means and standard errors. Fisher's least significant difference (LSD) was used to determine the significance of line means differences at each herbicide rate using the 95% level of confidence. […]

mutant W20 [5] = assay: as above; conditions: two weeks after treatment
Protocol: as §4

Mutant W4-4 = assay: as above; conditions: two weeks after treatment
Protocol: as §4

Compound `COc1nc(C)nc(NC(=O)NS(=O)(=O)c2ccccc2Cl)n1` [Compound 1, 2-chloro-N-[[(4-methoxy-6-methyl-1,3,5-triazin-2-yl)amino]carbonyl]benzenesulfonamide] has a soybean crop injury at 2 g/ha (Williams 82 [1]) of 98%, a soybean crop injury at 8 g/ha (Williams 82 [1]; Wm 82, 8 g/ha postemergence) of 100% and a mean % injury to soybean at 2 g/ha (mutant line W28) of 0%. It also gave a mean % injury to soybean at 8 g/ha (mutant line W28; W28, 8 g/ha postemergence) of 0%, a percent soybean injury at 8 g/ha (mutant line W23; W23, 8 g/ha postemergence) of 0% and a % crop injury at 2 g/ha (mutant line W4) of 0%. The % crop injury at 8 g/ha (mutant line W4; W4, 8 g/ha postemergence) was 0%, the percent soybean crop injury at 2 g/ha (mutant line W19) was 0% and the percent soybean crop injury at 8 g/ha (mutant line W19; W19, 8 g/ha postemergence) was 13%. It also gave a soybean crop injury (%) at 2 g/ha (mutant line W17) of 0%, a soybean crop injury (%) at 8 g/ha (mutant line W17; W17, 8 g/ha postemergence) of 0% and a percent crop injury at 8 g/ha (mutant line W20; W20, 8 g/ha postemergence) of 0%. The mean % injury (Williams 82 [2]; WM 82, 8 g/ha postemergence) was 97%, the mean % injury (Mutant 1-184A; 8 g/ha postemergence) was 97% and the mean % injury (mutant W19; W19, 8 g/ha postemergence) was 12%. It also gave a mean % injury (mutant W20 [3]; W20, 8 g/ha postemergence) of 13%.

For `COC(=O)c1cccnc1S(=O)(=O)NC(=O)Nc1nc(OC)cc(OC)n1` [Compound 8, Methyl 2-[[[[(4,6-dimethoxy-2-pyrimidinyl)amino]carbonyl]amino]sulfonyl]-3-pyridinecarboxylate], the “seedling development after seed soak” value (W20) was “uniformly inhibit growth of W20 beyond the stage of emergence and cotyledon expansion; also recorded: had not started to form true leaves”, the mean % injury (Williams 82 [4]; WM82, 4 g/ha postemergence) was 90% and the mean % injury (Williams 82 [4]; WM82, 16 g/ha postemergence) was 95%. The mean % injury (Williams 82 [4]; WM82, 32 g/ha postemergence) was 95%, the mean % injury (mutant W20 [5]; W20, 4 g/ha postemergence) was 90% and the mean % injury (mutant W20 [5]; W20, 16 g/ha postemergence) was 93%. The mean % injury (mutant W20 [5]; W20, 32 g/ha postemergence) was 95%, the mean % injury (Mutant W4-4; W4-4, 4 g/ha postemergence) was 48% and the mean % injury (Mutant W4-4; W4-4, 16 g/ha postemergence) was 48%. It also gave a mean % injury (Mutant W4-4; W4-4, 32 g/ha postemergence) of 65%, a soybean crop injury at 0.5 g/ha (Williams 82 [1]; Wm 82, 0.5 g/ha postemergence) of 93% and a soybean crop injury at 2 g/ha (Williams 82 [1]) of 98%. It also gave a mean % injury to soybean at 0.5 g/ha (mutant line W28; W28, 0.5 g/ha postemergence) of 53%, a mean % injury to soybean at 2 g/ha (mutant line W28) of 84% and a percent soybean injury at 0.5 g/ha (mutant line W23; W23, 0.5 g/ha postemergence) of 21%. For the same compound, the percent soybean injury at 2 g/ha (mutant line W23; W23, 2 g/ha postemergence) was 70%, the % crop injury at 0.5 g/ha (mutant line W4; W4, 0.5 g/ha postemergence) was 39% and the % crop injury at 2 g/ha (mutant line W4) was 81%. It also gave a percent soybean crop injury at 0.5 g/ha (mutant line W19; W19, 0.5 g/ha postemergence) of 29%, a percent soybean crop injury at 2 g/ha (mutant line W19) of 85% and a soybean crop injury (%) at 0.5 g/ha (mutant line W17; W17, 0.5 g/ha postemergence) of 26%. It also gave a soybean crop injury (%) at 2 g/ha (mutant line W17) of 83%, a percent crop injury at 0.5 g/ha (mutant line W20; W20, 0.5 g/ha postemergence) of 19% and a percent crop injury at 2 g/ha (mutant line W20; W20, 2 g/ha postemergence) of 89%. The mean % injury (Williams 82 [2]; WM 82, 8 g/ha postemergence) was 95%, the mean % injury (Williams 82 [2]; WM 82, 32 g/ha postemergence) was 95% and the mean % injury (Mutant 1-184A; 8 g/ha postemergence) was 93%. The mean % injury (Mutant 1-184A; 32 g/ha postemergence) was 92%, the mean % injury (mutant W19; W19, 8 g/ha postemergence) was 84% and the mean % injury (mutant W19; W19, 32 g/ha postemergence) was 95%. For the same compound, the mean % injury (mutant W20 [3]; W20, 8 g/ha postemergence) was 93% and the mean % injury (mutant W20 [3]; W20, 32 g/ha postemergence) was 97%.
